{"source": "patent US9260481B2", "about": "“Peptide derivatives as antibiotics” (priority 2011, dated 2016)", "key": {"[1]": {"test_system": "P. aeruginosa ATCC 27853", "assay": "Bacterial killing curves (time-to-kill)", "assay_type": "cell-based, Pseudomonas aeruginosa", "conditions": "growing P. aeruginosa ATCC 27853, at four-fold the MIC", "description": "(§1) Bacterial killing curves were carried out by inoculating S. aureus ATCC 13709 and P. aeruginosa ATCC 27853 with Odilomycin A concentration equal to four-fold the MIC. […] S. aureus and P. aeruginosa inoculi were prepared from colonies grown overnight in MHB. Antibiotics concentrations in the flask were adjusted in MHB according to the desired concentration. Culture tubes containing 10 mL were inoculated with S. aureus or P. aeruginosa at an approximate inoculum of 10^5 CFU/mL. Samples were drawn and bacteria were counted at 0, 1, 2, 3, 4, 6 and 24 h of incubation at 37° C. Thus, after vortexing the culture tubes, two 50 μL samples were removed and serially diluted with MHB. After each dilution step, 20 μL was plated onto LB agar plates, which were incubated for 24 h at 37° C. Afterwards the colonies were counted and back-extrapolated to the original volume to determine the initial concentration (CFU/mL)."}, "[2]": {"test_system": "S. aureus ATCC 13709", "assay_type": "cell-based, Staphylococcus aureus", "conditions": "ATCC 13709, 24 h", "description": "Minimal bactericidal concentrations (MBCs) were established by extending the MIC procedure to the evaluation of bactericidal activity. After 24 hours, 10 μL were drawn from the wells, serially diluted and then spotted onto suitable agar plates. The plates were incubated at 37° C. overnight. […] All the experiments were done in triplicate."}, "[3]": {"test_system": "S. aureus ATCC 13709", "assay": "Bacterial killing curves (time-to-kill)", "assay_type": "cell-based, Staphylococcus aureus", "conditions": "growing S. aureus ATCC 13709, at four-fold the MIC", "description": "as §1"}, "[4]": {"test_system": "Bacteroides fragilis", "assay": "microbe, parasite or virus in culture", "description": "(§2) The minimal inhibitory concentrations (MIC) were determined according to the Clinical and Laboratory Standards Institute (CLSI) conditions guidelines detailed in Table 7. Assays were performed in triplicate.\n(§3) Preparation of Inocula. Five to 10 well-isolated colonies were picked and resuspended in 3 ml sterile saline. The inoculum was re-suspended by vigorous shaking on a vortex mixer for 15 s. Turbidity was adjusted to McFarland standard 0.5 ([…]). The inoculum was further diluted in the appropriate media (Table 7) to give a final inoculum in each well of ˜2-8×10^5 CFU/ml.\n(§4) Addition of Test Article. Stock solutions of Odilomycin A or comparator were diluted in the appropriate media to give a maximum starting concentration of 50 μg/mL in the assay. 50 μL of medium was dispensed into each well in columns two to 12 of a 96 well plate. 100 μL of the appropriate test compound solution (100 μg/mL) was dispensed into each well in column one. In the case of M. catarrhalis, M. haemolytica and P. multocida these values were doubled (a final assay volume of 200 μL was used). […] Columns 11 and 12 served as positive (no drug or test article, inoculum added), and negative (no drug, test article, or inoculum added) growth controls respectively.\n(§5) Addition of Bacterial Strains. 50 μL of each inoculum suspension was added to the appropriate wells, resulting in a final volume of 100 μL consisting of 50 μL diluted compound or diluents, and 50 μL of inoculum or broth alone."}, "[5]": {"test_system": "Staphylococcus aureus", "assay": "microbe, parasite or virus in culture", "conditions": "for Antibacterial activity (MIC): unit not given in table (MICs in μg/mL)", "description": "as §2, §3, §4, §5"}, "[6]": {"test_system": "Moraxella catarrhalis", "description": "as §2, §3, §4, §5"}, "[7]": {"test_system": "Bacillus subtilis", "description": "as §2, §3, §4, §5"}, "[8]": {"test_system": "Haemophilus influenzae", "description": "as §2, §3, §4, §5"}, "[9]": {"test_system": "Enterococcus faecalis", "description": "as §2, §3, §4, §5"}, "[10]": {"test_system": "Klebsiella pneumoniae", "conditions": "K. pneumoniae", "description": "as §2, §3, §4, §5"}, "[11]": {"test_system": "Staphylococcus epidermidis", "description": "as §2, §3, §4, §5"}, "[12]": {"test_system": "Pseudomonas aeruginosa", "conditions": "for Antibacterial activity (MIC): unit not given in table (MICs in μg/mL)", "description": "as §2, §3, §4, §5"}, "[13]": {"test_system": "Stenotrophomonas maltophilia", "description": "as §2, §3, §4, §5"}, "[14]": {"test_system": "Escherichia coli", "description": "as §2, §3, §4, §5"}, "[15]": {"test_system": "Acinetobacter baumannii", "description": "as §2, §3, §4, §5"}, "[16]": {"test_system": "Pasteurella multocida", "description": "as §2, §3, §4, §5"}, "[17]": {"test_system": "Enterobacter cloacae", "description": "as §2, §3, §4, §5"}, "[18]": {"test_system": "Streptococcus pneumonia", "description": "as §2, §3, §4, §5"}, "[19]": {"test_system": "Streptococcus pyogenes", "description": "as §2, §3, §4, §5"}, "[20]": {"test_system": "Mannheimia haemolytica", "description": "as §2, §3, §4, §5"}, "[21]": {"test_system": "Enterococcus faecium", "description": "as §2, §3, §4, §5"}, "[22]": {"test_system": "Klebsiella oxytoca", "description": "as §2, §3, §4, §5"}, "[23]": {"test_system": "Proprionibacterium acnes", "conditions": "P. acnes ATCC 6919", "description": "as §2, §3, §4, §5"}}, "note": "Where two headings read alike, the source gives them in different places. Numbered stars: 1 amine (or outer) side, 2 acyl side, 3 side chain; on linkers, the order of the positions; unused ones are H or OH. Square brackets hold non-standard residues; d marks the D form. Peptide text beside a SMILES is read from it. * marks the point of attachment. ξ: configuration not given here. X1 = NCC(O)CCC(N[*:1])C(=O)[*:2]; ΔZArg = N=C(N)NCC/C=C(\\N)C(=O)O; ξDab(3-OH) = NCC(O)C(N)C(=O)O; Orn = NCCC[CH](N)C(=O)O; NH(CH2)4NH2 = NCCCCN*", "data": [{"smiles": "N=C(N)NCC/C=C(\\NC(=O)C(CCC(O)CN)NC(=O)C(Cc1cnc[nH]1)NC(=O)C1CCCN1C(=O)C(CCCN)NC(=O)CNC(=O)C(NC(=O)C(NC(=O)C(N)CCCCN)C(O)CN)C(O)CN)C(=O)NC(CCC(O)CN)C(=O)NCCCCN", "note": "(stereo not drawn) [Odilomycin A, Lys-(3-hydroxy-2,4-diaminobutanoic acid)-(3-hydroxy-2,4-diaminobutanoic acid)-Gly-Ornithine-Pro-His-(5-hydroxylysine)-(2,3-dehydroarginine)-(5-hydroxylysine)-(1,4-diaminobutane)] (H-K[ξDab(3-OH)][ξDab(3-OH)]G[Orn]PH[X1][ΔZArg][X1]-{NH(CH2)4NH2}; configuration not given here)", "values": [{"measurement": "Time to kill 100% of bacteria", "setting": "[1]", "result": "≤ 2", "unit": "h"}, {"measurement": "MBC", "setting": "[2]", "result": 0.78, "unit": "mg/L"}, {"measurement": "Time to kill 100% of bacteria", "setting": "[3]", "result": "≤ 3", "unit": "h"}, {"measurement": "MIC", "setting": "[4]", "result": 1.56, "unit": "mg/L"}, {"measurement": "MICs", "setting": "[5]", "result": "< 1", "unit": "µg/mL"}, {"measurement": "Antibacterial activity (MIC)", "setting": "[5]; S. aureus multiresistant clinical isolate 16666", "result": "<0.19"}, {"measurement": "Antibacterial activity (MIC)", "setting": "[5]; S. aureus multiresistant clinical isolate 20364", "result": 0.78}, {"measurement": "Antibacterial activity (MIC)", "setting": "[5]; S. aureus multiresistant clinical isolate 20681", "result": 1.56}, {"measurement": "Antibacterial activity (MIC)", "setting": "[5]; S. aureus multiresistant clinical isolate 21840", "result": 0.39}, {"measurement": "Antibacterial activity (MIC)", "setting": "[5]; S. aureus multiresistant clinical isolate 23305", "result": 0.78}, {"measurement": "MIC", "setting": "[6]", "result": 1.56, "unit": "mg/L"}, {"measurement": "MICs", "setting": "[6]", "result": "< 10", "unit": "µg/mL"}, {"measurement": "MIC", "setting": "[7]", "result": "<0.20", "unit": "mg/L"}, {"measurement": "MICs", "setting": "[7]", "result": "< 1", "unit": "µg/mL"}, {"measurement": "MIC", "setting": "[8]", "result": 12.5, "unit": "mg/L"}, {"measurement": "MIC", "setting": "[9]", "result": ">50.0", "unit": "mg/L"}, {"measurement": "antibacterial activity", "setting": "[9]; E. faecalis", "result": "Weak or no antibacterial activity"}, {"measurement": "antibacterial activity", "setting": "[10]", "result": "strong"}, {"measurement": "MIC", "setting": "[11]", "result": "<0.20", "unit": "mg/L"}, {"measurement": "MICs", "setting": "[11]", "result": "< 1", "unit": "µg/mL"}, {"measurement": "MIC", "setting": "[12]", "result": 3.12, "unit": "mg/L"}, {"measurement": "MICs", "setting": "[12]", "result": "< 10", "unit": "µg/mL"}, {"measurement": "MIC", "setting": "[12]; P. aeruginosa ATCC 27853", "result": 3.13, "unit": "mg/L"}, {"measurement": "Antibacterial activity (MIC)", "setting": "[12]; P. aeruginosa multiresistant clinical isolate 5618", "result": 6.25}, {"measurement": "Antibacterial activity (MIC)", "setting": "[12]; P. aeruginosa multiresistant clinical isolate 35170", "result": ">50"}, {"measurement": "Antibacterial activity (MIC)", "setting": "[12]; P. aeruginosa multiresistant clinical isolate 42162", "result": 25}, {"measurement": "Antibacterial activity (MIC)", "setting": "[12]; P. aeruginosa multiresistant clinical isolate 401681", "result": 25}, {"measurement": "Antibacterial activity (MIC)", "setting": "[12]; P. aeruginosa multiresistant clinical isolate 512232", "result": 3.12}, {"measurement": "MIC", "setting": "[13]", "result": 6.25, "unit": "mg/L"}, {"measurement": "MICs", "setting": "[13]", "result": "< 10", "unit": "µg/mL"}, {"measurement": "MICs", "setting": "[14]", "result": "< 10", "unit": "µg/mL"}, {"measurement": "MIC", "setting": "[14]; E. coli CTX-M14 clinical isolate AEC7", "result": 3.13, "unit": "mg/L"}, {"measurement": "MIC", "setting": "[14]; E. coli CTX-M15 clinical isolate MEC23", "result": 3.13, "unit": "mg/L"}, {"measurement": "MIC", "setting": "[15]", "result": 6.25, "unit": "mg/L"}, {"measurement": "MICs", "setting": "[15]", "result": "< 10", "unit": "µg/mL"}, {"measurement": "MIC", "setting": "[16]", "result": 25.0, "unit": "mg/L"}, {"measurement": "MIC", "setting": "[17]", "result": 1.56, "unit": "mg/L"}, {"measurement": "MICs", "setting": "[17]", "result": "< 10", "unit": "µg/mL"}, {"measurement": "MIC", "setting": "[18]", "result": ">50.0", "unit": "mg/L"}, {"measurement": "antibacterial activity", "setting": "[18]; S. pneumoniae", "result": "Weak or no antibacterial activity"}, {"measurement": "MIC", "setting": "[19]", "result": 50.0, "unit": "mg/L"}, {"measurement": "antibacterial activity", "setting": "[19]; S. pyogenes", "result": "Weak or no antibacterial activity"}, {"measurement": "MIC", "setting": "[20]", "result": 50.0, "unit": "mg/L"}, {"measurement": "MIC", "setting": "[21]", "result": 25.0, "unit": "mg/L"}, {"measurement": "antibacterial activity", "setting": "[21]; E. faecium", "result": "Weak or no antibacterial activity"}, {"measurement": "MIC", "setting": "[22]", "result": 0.39, "unit": "mg/L"}, {"measurement": "antibacterial activity", "setting": "[22]; K. oxytoca", "result": "strong"}, {"measurement": "MIC", "setting": "[23]", "result": 3.13, "unit": "mg/L"}]}]}
